In this experiment the test system is CD2F1 mice, L1210 leukemia ip, survival T/C. In words: NCI In Vivo Anticancer Drug Screen. Data for tumor model L1210 Leukemia (intraperitoneal) in CD2F1 (CDF1) mice. The settings on record: endpoint: mean survival time, higher = longer survival. The method, boiled down: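 Tumor-bearing mice (transplanted tumor) were split into treated and vehicle control groups, and the measured endpoint of each treated group was divided by that of its vehicle controls.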

Setting [1] is: dose: 100.0 mg/kg/injection, schedule: Q04DX003 (ip), vehicle: saline with Tween-80.
Setting [2] is: dose: 200.0 mg/kg/injection, schedule: Q04DX003 (ip), vehicle: saline with Tween-80.
[3] abbreviates: dose: 400.0 mg/kg/injection, schedule: Q04DX003 (ip), vehicle: saline with Tween-80.
[4] abbreviates: dose: 100.0 mg/kg/injection, schedule: Q01DX009 (ip), vehicle: saline with Tween-80.
The mark [5] stands for this setting: dose: 200.0 mg/kg/injection, schedule: Q01DX009 (ip), vehicle: saline with Tween-80.
Where [6] appears, read: dose: 400.0 mg/kg/injection, schedule: Q01DX009 (ip), vehicle: saline with Tween-80.
The mark [7] stands for this setting: dose: 10.0 mg/kg/injection, schedule: Q04DX003 (ip), vehicle: saline.
[8] abbreviates: dose: 20.0 mg/kg/injection, schedule: Q01DX009 (ip), vehicle: saline.
The mark [9] stands for this setting: dose: 100.0 mg/kg/injection, schedule: Q01DX001 (ip), vehicle: saline with Tween-80.
Setting [10] is: dose: 200.0 mg/kg/injection, schedule: Q01DX001 (ip), vehicle: saline with Tween-80.
Where [11] appears, read: dose: 400.0 mg/kg/injection, schedule: Q01DX001 (ip), vehicle: saline with Tween-80.
Where [12] appears, read: dose: 100.0 mg/kg/injection, schedule: Q04DX003 (ip), vehicle: saline.
Setting [13] is: dose: 200.0 mg/kg/injection, schedule: Q04DX003 (ip), vehicle: saline.

Toxic doses and inconclusive results are not listed.

For `Cc1ccc(Sc2cccc3c(C)c4cccc5c4c(c23)C[S+]5c2ccc(C)cc2)cc1` (stereo not given), the T/C (dose: 6.25 mg/kg/injection, schedule: Q04DX003 (ip), vehicle: saline with Tween-80) was 98 % of control.
As for `COc1ccc(NC(=O)Nc2ccc(C(C)C)cc2)cc1`, the T/C under setting [1] is 93 % of control, the T/C under setting [2] was 91 % of control and the T/C under setting [3] was 95 % of control.
Consider `CCN(CC)C(=O)Nc1ccccc1Cl`, for which the T/C was 105 % of control (dose: 100.0 mg/kg/injection, schedule: Q04DX002 (ip), vehicle: saline with Tween-80); 108 % of control (dose: 200.0 mg/kg/injection, schedule: Q04DX002 (ip), vehicle: saline with Tween-80); 94 % of control (dose: 400.0 mg/kg/injection, schedule: Q04DX002 (ip), vehicle: saline with Tween-80).
In the case of `CCC(CC)C(O)C(C)C(C)O` (stereo not given), the T/C reads like this: under setting [4], 91 % of control; under setting [5], 91 % of control; under setting [6], 91 % of control.
Consider `C=C(NC(C)=O)C(=O)CCC(N)=O`, for which the T/C by setting is: (dose: 5.0 mg/kg/injection, schedule: Q01DX009 (ip), vehicle: saline) 101 % of control; (dose: 10.0 mg/kg/injection, schedule: Q01DX009 (ip), vehicle: saline) 95 % of control; under setting [7], 93 % of control; under setting [8], 98 % of control; (dose: 20.0 mg/kg/injection, schedule: Q04DX003 (ip), vehicle: saline) 97 % of control.
For `S=P(N1CCOCC1)(N1CC1)N1CC1`, the T/C is 116 % of control (dose: 10.0 mg/kg/injection, schedule: Q01DX007 (ip), vehicle: saline); 118 % of control (dose: 10.0 mg/kg/injection, schedule: Q03DX003 (ip), vehicle: saline); 114 % of control under setting [7]; 118 % of control (dose: 12.5 mg/kg/injection, schedule: Q01DX Z (ip), vehicle: carboxymethylcellulose (CMC)); 172 % of control (dose: 20.0 mg/kg/injection, schedule: Q01DX007 (ip), vehicle: saline); 171 % of control under setting [8]. The T/C (dose: 25.0 mg/kg/injection, schedule: Q01DX Z (ip), vehicle: carboxymethylcellulose (CMC)) was 100 % of control; the T/C (dose: 40.0 mg/kg/injection, schedule: Q01DX007 (ip), vehicle: saline) is 86 % of control; the T/C (dose: 40.0 mg/kg/injection, schedule: Q01DX009 (ip), vehicle: saline) was 100 % of control; the T/C (dose: 40.0 mg/kg/injection, schedule: Q03DX003 (ip), vehicle: saline) was 223 % of control; the T/C (dose: 40.0 mg/kg/injection, schedule: Q04DX003 (ip), vehicle: saline) was 218 % of control.
For `Cc1cc(C(O)(C(=O)O)c2ccccc2)c(C)c(C)c1C` (stereo not given), the T/C by setting is: (dose: 75.0 mg/kg/injection, schedule: Q01DX001 (ip), vehicle: other) 90 % of control; (dose: 150.0 mg/kg/injection, schedule: Q01DX001 (ip), vehicle: other) 94 % of control; (dose: 300.0 mg/kg/injection, schedule: Q01DX001 (ip), vehicle: other) 102 % of control.
In the case of `Nc1nc(Cl)cc(-c2ccccc2)n1`, the T/C by setting is: under setting [1], 102 % of control; under setting [2], 90 % of control; under setting [3], 90 % of control.
Turning to `C/C=C/C=C/C(=O)c1cc(C#N)c(OC)cc1O`, the T/C was 88 % of control under setting [9], 88 % of control under setting [10] and 89 % of control under setting [11].
As to `COc1cc(OC)cc(C2=NNc3n[nH]c(=S)n3N2)c1`, the T/C under setting [4] was 91 % of control; the T/C under setting [1] is 93 % of control; the T/C under setting [5] is 93 % of control; the T/C under setting [2] is 90 % of control; the T/C under setting [3] is 102 % of control.
For the compound `C(/C=C\c1ccccc1)=Nc1ccccc1`, the T/C was 93 % of control (dose: 25.0 mg/kg/injection, schedule: Q01DX009 (ip), vehicle: Klucel (hydroxypropylcellulose) (HPC)); 93 % of control (dose: 50.0 mg/kg/injection, schedule: Q01DX009 (ip), vehicle: Klucel (hydroxypropylcellulose) (HPC)); 93 % of control (dose: 100.0 mg/kg/injection, schedule: Q01DX001 (ip), vehicle: saline sonified); 95 % of control (dose: 100.0 mg/kg/injection, schedule: Q01DX009 (ip), vehicle: Klucel (hydroxypropylcellulose) (HPC)); 101 % of control under setting [4]; 97 % of control under setting [5]. In addition, the T/C under setting [6] was 92 % of control.
Consider `COc1ccc(CC2C(=O)OC(=O)C2Cc2ccc(OC)c(OC)c2)cc1OC` (stereo not given), for which the T/C is 104 % of control under setting [4], 108 % of control under setting [5] and 96 % of control under setting [6].
For `CC(=O)OCC1OC(n2nc(CBr)cc2C(N)=O)C(OC(C)=O)C(OC(C)=O)C1OC(C)=O` (stereo not given), the T/C is, setting by setting: (dose: 12.5 mg/kg/injection, schedule: Q01DX005 (ip), vehicle: distilled water + Tween-80) 104 % of control; (dose: 25.0 mg/kg/injection, schedule: Q01DX005 (ip), vehicle: distilled water + Tween-80) 96 % of control; (dose: 50.0 mg/kg/injection, schedule: Q01DX005 (ip), vehicle: distilled water + Tween-80) 98 % of control; (dose: 100.0 mg/kg/injection, schedule: Q01DX005 (ip), vehicle: distilled water + Tween-80) 92 % of control; (dose: 200.0 mg/kg/injection, schedule: Q01DX005 (ip), vehicle: distilled water + Tween-80) 93 % of control.
On to `CCCCCCCCCCNC(=O)C[n+]1cccc(C(=O)N(CC)CC)c1`, for which the T/C (dose: 6.25 mg/kg/injection, schedule: Q01DX009 (ip), vehicle: saline with Tween-80) is 91 % of control; the T/C (dose: 12.5 mg/kg/injection, schedule: Q01DX009 (ip), vehicle: saline with Tween-80) was 97 % of control; the T/C (dose: 25.0 mg/kg/injection, schedule: Q01DX009 (ip), vehicle: saline with Tween-80) was 91 % of control.
Turning to `[O-]/[N+](=C\c1ccccc1)c1ccccc1`, the T/C is 97 % of control under setting [1] and 90 % of control under setting [2].
Regarding `N#CO`, the T/C was 100 % of control (dose: 50.0 mg/kg/injection, schedule: Q01DX009 (ip), vehicle: saline sonified); 118 % of control (dose: 100.0 mg/kg/injection, schedule: Q01DX009 (ip), vehicle: saline sonified); 98 % of control under setting [12]; 112 % of control under setting [13].
With `COc1ccc2ccccc2c1-c1c(OC)ccc2ccccc12`, the T/C is 100 % of control under setting [9], 103 % of control under setting [10] and 100 % of control under setting [11].
In the case of `COC(=O)C(NC(=O)CCNC(=O)OCc1ccccc1)C(C)C` (stereo not given), the T/C was 95 % of control under setting [4] and 101 % of control under setting [5].
As for `COC(=O)C1(C)CSCCC1=O` (stereo not given), the T/C is 107 % of control under setting [12]; 96 % of control under setting [13]; 96 % of control (dose: 400.0 mg/kg/injection, schedule: Q04DX003 (ip), vehicle: saline).
On to `CC(=O)NCCN`, for which the T/C is 101 % of control (dose: 50.0 mg/kg/injection, schedule: Q04DX003 (ip), vehicle: saline); 95 % of control under setting [12]; 97 % of control under setting [13].

The values above are taken from PubChem BioAssay AID256 (DTP/NCI, 2004).
